Results: US11046716B2, “Beta-lactamase inhibitors” (priority 2015, dated 2021)

Assays:
[1] = test system: E. coli expressing the Class A Extended Spectrum Beta-Lactamase (ESBL) CTX-M-15; test: Broth microdilution MIC assay with ceftazidime, E. coli CTX-M-15; format: cell-based; conditions: Fixed CAZ (ceftazidime) 4 μg/mL; E. coli ESBL4 CTX-M-15
Outline: (§1)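 CAMHB; cpd 2-fold serial dilution, 16–0.125 μg/mL final; β-lactam static 4 μg/ml; CLSI inoculation; 16–20 h, 37° C; MIC read by eye.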

[2] = target: T1, KPC-2 (Klebsiella pneumoniae, UniProt Q9F663); test: β-lactamase enzyme inhibition assay, KPC-2 (imipenem substrate); format: biochemical; conditions: Class A; imipenem substrate, 300 nm; read-out: KPC-2
T1 construct: made in house; host or cells: E. coli BL21(DE3)
T1 sequence (Q9F663 25-293, looked up): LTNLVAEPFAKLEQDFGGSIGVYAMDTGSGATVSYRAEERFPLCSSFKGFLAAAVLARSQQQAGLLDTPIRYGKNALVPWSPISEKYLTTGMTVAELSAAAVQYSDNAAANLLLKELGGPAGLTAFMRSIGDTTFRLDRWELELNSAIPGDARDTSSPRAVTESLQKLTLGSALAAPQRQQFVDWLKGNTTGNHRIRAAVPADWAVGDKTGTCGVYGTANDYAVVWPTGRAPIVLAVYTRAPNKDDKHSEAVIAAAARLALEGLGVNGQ
Outline: (§2)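 IC50 is the inhibitor level cutting initial substrate hydrolysis rate by 50% relative to no-inhibitor controls, after 15 min enzyme–inhibitor preincubation at 37 °C. KPC-2 read with imipenem at 300 nm, SHV-5 with cefotaxime at 260 nm; enzymes were untagged, E. coli-expressed, chromatographically purified.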

[3] = test system: K. pneumoniae expressing the class A carbapenemase KPC-2 and the class B carbapenemase VIM-4; test: Broth microdilution MIC assay with meropenem, K. pneumoniae KPC-2 and VIM-4; format: cell-based; conditions: Fixed Mero (meropenem) 4 μg/mL; K. p. A-1797 KPC-2 VIM-4
Outline: as §1

[4] = test system: K. pneumoniae producing the Class D carbapenemase OXA-48; test: Broth microdilution MIC assay with meropenem, K. pneumoniae OXA-48; format: cell-based; conditions: Fixed Mero (meropenem) 4 μg/mL; K. p. 11978 OXA-48
Outline: as §1

[5] = test system: K. pneumoniae expressing the Class A carbapenemase KPC-2; test: Broth microdilution MIC assay with meropenem, K. pneumoniae KPC-2; format: cell-based; conditions: Fixed Mero (meropenem) 4 μg/mL; K. p. 156319 KPC-3
Outline: as §1

[6] = target: T2, SHV-5 (Klebsiella pneumoniae, UniProt P0A3M1); test: β-lactamase enzyme inhibition assay, SHV-5 (cefotaxime substrate); format: biochemical
T2 construct: made in house; host or cells: E. coli BL21(DE3)
T2 sequence (P0A3M1 22-286): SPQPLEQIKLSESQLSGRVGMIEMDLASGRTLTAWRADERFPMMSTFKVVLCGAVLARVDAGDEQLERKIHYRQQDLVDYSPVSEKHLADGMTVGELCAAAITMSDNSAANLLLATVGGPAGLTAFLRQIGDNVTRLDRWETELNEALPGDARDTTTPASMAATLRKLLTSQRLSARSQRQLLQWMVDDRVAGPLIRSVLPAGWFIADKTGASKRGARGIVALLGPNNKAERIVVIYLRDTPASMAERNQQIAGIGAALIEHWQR
Outline: as §2

[7] = target: OXA-48 (UniProt Q6XEC0); test: β-lactamase enzyme inhibition assay, Class D oxacillinase; format: biochemical; conditions: read-out: OXA-48
[8] = target: T3, VIM-2 (Escherichia coli, UniProt Q5U7L7); test: β-lactamase enzyme inhibition assay, VIM-2 (nitrocefin substrate); format: biochemical; conditions: Class B; nitrocefin substrate, 486 nm; read-out: VIM-2
T3 construct: made in house; host or cells: E. coli BL21(DE3)
Outline: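 Enzyme + inhibitor, 37 °C, 15 min; nitrocefin 100 μM final; A486 read for 10 min. % inhibition vs no-inhibitor wells per concentration; IC50 = concentration halving initial hydrolysis rate.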

[9] = test system: E. cloacae expressing the Class C P99; test: Broth microdilution MIC assay with ceftazidime, E. cloacae P99; format: cell-based; conditions: Fixed CAZ (ceftazidime) 4 μg/mL; E. cl. 144200 p99 AmpC
Outline: as §1

[10] = test system: P. aeruginosa expressing the Class B carbapenemase VIM-2; test: Broth microdilution MIC assay with meropenem, P. aeruginosa VIM-2; format: cell-based; conditions: Fixed Mero (meropenem) 4 μg/mL; P. aerug. 2775 VIM-2
Outline: as §1

[11] = target: T4, AmpC (Enterobacter cloacae, UniProt P05364); test: β-lactamase enzyme inhibition assay, p99 AmpC (nitrocefin substrate); format: biochemical
T4 construct: made in house; host or cells: E. coli BL21(DE3)
T4 sequence (P05364 21-381): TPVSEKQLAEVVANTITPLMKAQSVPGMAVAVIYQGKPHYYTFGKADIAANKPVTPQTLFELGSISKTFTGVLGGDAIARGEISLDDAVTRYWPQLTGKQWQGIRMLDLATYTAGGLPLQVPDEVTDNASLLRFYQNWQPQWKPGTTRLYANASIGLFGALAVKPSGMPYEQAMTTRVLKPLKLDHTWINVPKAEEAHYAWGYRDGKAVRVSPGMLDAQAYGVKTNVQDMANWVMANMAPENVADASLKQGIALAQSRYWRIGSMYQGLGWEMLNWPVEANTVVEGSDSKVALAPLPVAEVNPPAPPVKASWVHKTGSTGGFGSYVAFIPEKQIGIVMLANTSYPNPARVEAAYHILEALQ
Outline: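 IC50 is the inhibitor level cutting initial substrate hydrolysis rate by 50% relative to no-inhibitor controls, after 15 min enzyme–inhibitor preincubation at 37 °C. enzymes were untagged, E. coli-expressed, chromatographically purified.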

Row | SMILES | MIC (μg/mL) of Exemplary Compounds in presence of fixed β-lactams: E. coli ESBL4 CTX-M-15 [1] | IC50 [2] | MIC (μg/mL) of Exemplary Compounds in presence of fixed β-lactams: K. p. A-1797 KPC-2 VIM-4 [3] | MIC (μg/mL) of Exemplary Compounds in presence of fixed β-lactams: K. p. 11978 OXA-48 [4] | MIC (μg/mL) of Exemplary Compounds in presence of fixed β-lactams: K. p. 156319 KPC-3 [5] | IC50 [6] | IC50 [7] | IC50 [8] | MIC (μg/mL) of Exemplary Compounds in presence of fixed β-lactams: E. cl. 144200 p99 AmpC [9] | MIC (μg/mL) of Exemplary Compounds in presence of fixed β-lactams: P. aerug. 2775 VIM-2 [10] | IC50 [11]
1 | N=CNCCn1nnnc1CC(=O)N[C@H]1Cc2cccc(C(=O)O)c2OB1O [Example 104, (R)-3-(2-(1-(2-formimidamidoethyl)-1H-tetrazol-5-yl)acetamido)-2-hydroxy-3,4-dihydro-2H-benzo[e][1,2]oxaborinine-8-carboxylic acid] | C (C represents an MIC of <1 μg/mL) | < 0.1 µM | C (C represents an MIC of <1 μg/mL) | C (C represents an MIC of <1 μg/mL) | C (C represents an MIC of <1 μg/mL) | < 0.1 µM | 0.1 to 1 µM | 0.1 to 1 µM | C (C represents an MIC of <1 μg/mL) | C (C represents an MIC of <1 μg/mL) | < 0.1 µM
2 | NCc1nnn(CC(=O)N[C@H]2Cc3cccc(C(=O)O)c3OB2O)c1I [Example 105, (R)-3-(2-(4-(aminomethyl)-5-iodo-1H-1,2,3-triazol-1-yl)acetamido)-2-hydroxy-3,4-dihydro-2H-benzo[e][1,2]oxaborinine-8-carboxylic acid] | C (C represents an MIC of <1 μg/mL) | < 0.1 µM | C (C represents an MIC of <1 μg/mL) | C (C represents an MIC of <1 μg/mL) | C (C represents an MIC of <1 μg/mL) | 0.1 to 1 µM | < 0.1 µM | < 0.1 µM | C (C represents an MIC of <1 μg/mL) | C (C represents an MIC of <1 μg/mL) | < 0.1 µM
3 | Cc1c(CN)nnn1CC(=O)N[C@H]1Cc2cccc(C(=O)O)c2OB1O [Example 106, (R)-3-(2-(4-(aminomethyl)-5-methyl-1H-1,2,3-triazol-1-yl)acetamido)-2-hydroxy-3,4-dihydro-2H-benzo[e][1,2]oxaborinine-8-carboxylic acid] | C (C represents an MIC of <1 μg/mL) | < 0.1 µM | C (C represents an MIC of <1 μg/mL) | B (B represents an MIC between 1 and 16 μg/mL inclusive) | C (C represents an MIC of <1 μg/mL) | 0.1 to 1 µM | < 0.1 µM | < 0.1 µM | C (C represents an MIC of <1 μg/mL) | C (C represents an MIC of <1 μg/mL) | < 0.1 µM
4 | NCc1nnn(CC(=O)N[C@H]2Cc3cccc(C(=O)O)c3OB2O)c1Cl [Example 107, (R)-3-(2-(4-(aminomethyl)-5-chloro-1H-1,2,3-triazol-1-yl)acetamido)-2-hydroxy-3,4-dihydro-2H-benzo[e][1,2]oxaborinine-8-carboxylic acid] | C (C represents an MIC of <1 μg/mL) | < 0.1 µM | C (C represents an MIC of <1 μg/mL) | B (B represents an MIC between 1 and 16 μg/mL inclusive) | C (C represents an MIC of <1 μg/mL) | 0.1 to 1 µM | < 0.1 µM | < 0.1 µM | B (B represents an MIC between 1 and 16 μg/mL inclusive) | C (C represents an MIC of <1 μg/mL) | < 0.1 µM
